Laboratory results: ChEMBL document CHEMBL5136963 (RSC Med Chem, 2021)
Calls of active or inactive are those of the source. The rule behind the calls is not given here.

How the values were obtained:
[1] = target: Sodium-dependent serotonin transporter (Rattus norvegicus, UniProt P31652); assay: Displacement of [3H]-citalopram from SERT in Sprague-Dawley rat brainstem incubated for 60 mins by radioligand binding assay; type: tissue-based
[2] = target: Sodium-dependent dopamine transporter (Rattus norvegicus, UniProt P23977); assay: Displacement of [3H]-WIN 3542875 from DAT in Sprague-Dawley rat brain striatum incubated for 120 mins by radioligand binding assay; type: tissue-based
[3] = target: Norepinephrine transporter (Rattus norvegicus, UniProt Q9WTR4); assay: Displacement of [3H]-nisoxetine from NET in Sprague-Dawley rat brain prefrontal cortex incubated for 180 mins by radioligand binding assay; type: tissue-based
[4] = target: Sodium-dependent noradrenaline transporter (Homo sapiens) (UniProt P23975); assay: Binding affinity to YFP-tagged human NET expressed in HEK293 cells assessed as fluorescence increase at plasma membrane at 10 nM incubated for 1 to 20 mins by laser scanning microscopy; conditions: time 1-20 min, TDE = time-dependent effect
[5] = target: Sodium-dependent serotonin transporter (Homo sapiens) (UniProt P31645); assay: Binding affinity to human SERT expressed in HEK293 cells at 10 nM incubated for 20 mins by laser scanning microscopy; type: cell-based
Rattus norvegicus [6] = species on record: Rattus norvegicus; assay: Selectivity index, ratio of Ki for Displacement of [3H]-WIN 3542875 from DAT in Sprague-Dawley rat brain striatum to Ki for Displacement of [3H]-nisoxetine from NET in Sprague-Dawley rat brain prefrontal cortex
[7] = target: Sodium-dependent noradrenaline transporter (Homo sapiens) (UniProt P23975); assay: Binding affinity to human NET expressed in HEK293 cells assessed as fluorescence increase at plasma membrane at 1 to 10 nM incubated for 10 mins by laser scanning microscopy; conditions: dose 1-10 nM, DDE = dose-dependent effect
Rattus norvegicus [8] = species on record: Rattus norvegicus; assay: Selectivity index, ratio of Ki for displacement of [3H]-citalopram from SERT in Sprague-Dawley rat brainstem to Ki for Displacement of [3H]-nisoxetine from NET in Sprague-Dawley rat brain prefrontal cortex

Chain of Sodium-dependent dopamine transporter (P23977 whole entry): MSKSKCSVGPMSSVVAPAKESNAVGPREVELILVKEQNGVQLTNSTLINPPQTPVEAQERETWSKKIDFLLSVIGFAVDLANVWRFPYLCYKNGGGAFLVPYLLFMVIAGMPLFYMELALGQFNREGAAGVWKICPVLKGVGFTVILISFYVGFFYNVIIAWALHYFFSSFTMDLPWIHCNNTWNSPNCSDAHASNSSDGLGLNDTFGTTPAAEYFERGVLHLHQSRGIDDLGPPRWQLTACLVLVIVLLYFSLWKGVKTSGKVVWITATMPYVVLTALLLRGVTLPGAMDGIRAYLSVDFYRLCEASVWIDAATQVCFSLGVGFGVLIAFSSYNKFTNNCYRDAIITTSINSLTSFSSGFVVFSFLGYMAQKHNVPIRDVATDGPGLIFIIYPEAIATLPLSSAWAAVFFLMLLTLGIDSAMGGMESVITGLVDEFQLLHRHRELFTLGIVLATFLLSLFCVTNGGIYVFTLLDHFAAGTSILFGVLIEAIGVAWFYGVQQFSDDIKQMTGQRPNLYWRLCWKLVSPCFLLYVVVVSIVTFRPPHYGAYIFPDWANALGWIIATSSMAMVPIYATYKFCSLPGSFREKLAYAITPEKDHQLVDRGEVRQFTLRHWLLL
Chain of Sodium-dependent serotonin transporter (P31652 whole entry): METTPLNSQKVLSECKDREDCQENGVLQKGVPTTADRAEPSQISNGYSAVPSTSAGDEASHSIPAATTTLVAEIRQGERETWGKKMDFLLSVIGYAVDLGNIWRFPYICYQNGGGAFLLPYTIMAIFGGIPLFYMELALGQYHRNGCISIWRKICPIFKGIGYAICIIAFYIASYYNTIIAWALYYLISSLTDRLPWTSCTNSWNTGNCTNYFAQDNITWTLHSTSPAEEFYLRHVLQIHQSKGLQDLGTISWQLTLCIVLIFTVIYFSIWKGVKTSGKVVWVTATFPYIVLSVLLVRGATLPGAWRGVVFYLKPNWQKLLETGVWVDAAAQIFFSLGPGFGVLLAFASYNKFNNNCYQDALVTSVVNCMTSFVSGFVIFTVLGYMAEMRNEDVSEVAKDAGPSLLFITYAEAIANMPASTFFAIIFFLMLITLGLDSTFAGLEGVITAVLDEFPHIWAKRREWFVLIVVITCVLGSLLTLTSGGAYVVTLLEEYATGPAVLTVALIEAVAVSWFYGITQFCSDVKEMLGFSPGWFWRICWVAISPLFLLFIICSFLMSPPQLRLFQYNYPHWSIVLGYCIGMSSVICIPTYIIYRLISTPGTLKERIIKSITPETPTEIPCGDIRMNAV
Chain of Norepinephrine transporter (Q9WTR4 whole entry): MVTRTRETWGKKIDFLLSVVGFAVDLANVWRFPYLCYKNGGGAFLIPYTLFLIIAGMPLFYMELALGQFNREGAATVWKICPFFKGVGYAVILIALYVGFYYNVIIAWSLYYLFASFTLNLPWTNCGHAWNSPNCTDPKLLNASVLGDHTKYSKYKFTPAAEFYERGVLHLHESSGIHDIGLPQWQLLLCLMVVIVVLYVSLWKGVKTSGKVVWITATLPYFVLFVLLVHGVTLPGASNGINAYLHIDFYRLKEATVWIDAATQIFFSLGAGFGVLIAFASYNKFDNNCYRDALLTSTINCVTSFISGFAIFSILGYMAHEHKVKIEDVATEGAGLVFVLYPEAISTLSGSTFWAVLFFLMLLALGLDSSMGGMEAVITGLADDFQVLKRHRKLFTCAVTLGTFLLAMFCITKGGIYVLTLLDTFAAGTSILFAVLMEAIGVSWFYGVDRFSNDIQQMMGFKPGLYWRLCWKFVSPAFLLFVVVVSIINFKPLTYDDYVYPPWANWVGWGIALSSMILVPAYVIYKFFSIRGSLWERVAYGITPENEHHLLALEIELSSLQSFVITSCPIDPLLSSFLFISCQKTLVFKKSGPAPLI
Chain of Sodium-dependent noradrenaline transporter (Homo sapiens) (P23975 whole entry): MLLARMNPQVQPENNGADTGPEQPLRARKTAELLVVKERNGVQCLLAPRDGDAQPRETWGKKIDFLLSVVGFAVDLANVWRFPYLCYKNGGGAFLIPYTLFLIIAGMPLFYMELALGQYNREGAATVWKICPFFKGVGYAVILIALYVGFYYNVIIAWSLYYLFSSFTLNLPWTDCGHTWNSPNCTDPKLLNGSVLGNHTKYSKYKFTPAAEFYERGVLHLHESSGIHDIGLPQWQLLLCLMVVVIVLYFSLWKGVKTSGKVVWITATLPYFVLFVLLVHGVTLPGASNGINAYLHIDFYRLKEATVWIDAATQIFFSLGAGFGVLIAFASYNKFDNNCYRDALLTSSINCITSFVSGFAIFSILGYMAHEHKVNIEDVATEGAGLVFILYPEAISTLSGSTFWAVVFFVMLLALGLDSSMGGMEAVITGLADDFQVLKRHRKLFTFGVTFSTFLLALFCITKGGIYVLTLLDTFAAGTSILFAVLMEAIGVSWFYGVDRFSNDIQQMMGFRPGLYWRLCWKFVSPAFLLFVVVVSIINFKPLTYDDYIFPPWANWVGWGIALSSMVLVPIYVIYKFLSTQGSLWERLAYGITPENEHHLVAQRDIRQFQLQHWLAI
Chain of Sodium-dependent serotonin transporter (Homo sapiens) (P31645 whole entry, looked up): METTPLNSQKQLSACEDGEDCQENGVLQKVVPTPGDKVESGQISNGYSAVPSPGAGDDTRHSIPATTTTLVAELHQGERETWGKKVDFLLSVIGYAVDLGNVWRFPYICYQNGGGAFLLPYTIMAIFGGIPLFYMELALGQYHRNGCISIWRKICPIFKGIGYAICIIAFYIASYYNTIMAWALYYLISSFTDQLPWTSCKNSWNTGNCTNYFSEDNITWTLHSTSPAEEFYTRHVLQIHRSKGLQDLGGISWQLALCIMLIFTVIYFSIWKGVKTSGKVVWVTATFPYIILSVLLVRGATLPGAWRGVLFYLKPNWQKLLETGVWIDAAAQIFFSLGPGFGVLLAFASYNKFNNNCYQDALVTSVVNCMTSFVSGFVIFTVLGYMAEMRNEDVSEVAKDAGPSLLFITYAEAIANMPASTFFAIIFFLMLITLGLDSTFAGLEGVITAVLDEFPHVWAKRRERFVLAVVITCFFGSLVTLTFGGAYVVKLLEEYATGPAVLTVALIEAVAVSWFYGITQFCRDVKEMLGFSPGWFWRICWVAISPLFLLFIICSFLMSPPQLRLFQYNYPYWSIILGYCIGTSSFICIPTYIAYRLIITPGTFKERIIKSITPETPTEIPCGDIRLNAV

SMILES	Ki [1] [nM]	Ki [2] [nM]	Ki [3] [nM]	Activity [4]	Activity [5]	Ratio Ki (Rattus norvegicus [6])	Activity [7]	Ratio Ki (Rattus norvegicus [8])
CNCCCC1(c2ccccc2)OC(C)(C)c2ccccc21 (stereo not given) [TALOPRAM]	795	> 10000	4.5	–	–	–	–	–
CCN(CC)c1ccc2c(-c3ccc(S(=O)(=O)NCCCCCC(=O)NCCN4C5CCC4[C@@H](C(=O)OC)[C@@H](c4ccc(Cl)c(Cl)c4)C5)cc3S(=O)(=O)[O-])c3ccc(=[N+](CC)CC)cc-3oc2c1 (stereo not given in full)	16	17	79	–	–	–	–	–
CCN(CC)c1ccc2c(-c3ccc(S(=O)(=O)NCCCCCC(=O)NCCNCCCC4(c5ccccc5)OC(C)(C)c5ccccc54)cc3S(=O)(=O)[O-])c3ccc(=[N+](CC)CC)cc-3oc2c1 (stereo not given)	> 10000	4870	> 10000	–	–	–	–	–
CCN(CC)c1ccc2c(-c3ccc(S(=O)(=O)NCCCCCC(=O)NCc4ccc5c(c4)C(C)(C)OC5(CCCNC)c4ccccc4)cc3S(=O)(=O)[O-])c3ccc(=[N+](CC)CC)cc-3oc2c1 (stereo not given)	1140	964	> 10000	–	–	–	–	–
CCN(CC)c1ccc2c(-c3ccc(S(=O)(=O)NCCCCCC(=O)NCc4cccc(C(CCNC)Oc5ccccc5OC)c4)cc3S(=O)(=O)[O-])c3ccc(=[N+](CC)CC)cc-3oc2c1 (stereo not given)	785	1540	43	Tde	Active	36	Dde	18
